# Measurements published in patent publication US20250011330A1, “Imidazo[1,2- a]pyrazine and Imidazo[1,2- a]pyridine Based Tyrosyl-DNA Phosphodiesterase I (TDP1) Inhibitors” (The USA, As Represented by the Secretary, Department of …, priority 2021, published 2025).
# Where two headings read alike, the source gives them in different places.
# Assays:
# TDP2 = TDP2 (Homo sapiens (Human), UniProt O95551); assay: gel-based TDP2 fluorescence assay in vitro; assay type: biochemical; details: read-out: TDP2 IC50
# Protocol: (§1) (TDP assay buffer: 50 mM Tris HCl, pH 7.5, 80 mM KCl, 2 mM EDTA, 1 mM DTT, 40 μg/ml BSA and 0.01% Tween-20. TDP1 (20 mg/mL in 25 mM Tris-HCl pH 7.2, 150 mM NaCl, 2 mM tris(2-carboxyethyl)phosphine) with 2 mL of well solution composed of 0.1 M MOPS/HEPES pH 7.5, 10% (w/v) PEG 8000, 20% (v/v) ethylene glycol, 0.03 M sodium fluoride, 0.03 M sodium bromide, 0.03 M sodium iodide, 0.03 M sodium bromide and sealed over […] well solution. AF647 labelling buffer: Tris-HCl (pH 7.2, 25 mM), NaCl (150 mM), and tris(2-carboxyethyl)phosphine hydrochloride (TCEP, 2 mM).)
# (§2) (DNA only: Buffer+DMSO. DMSO only: Enzyme+DMSO. Drug: Enzyme+Drug, 25° C., 10 min+DNA, reaction at 25° C., 15 min.)
# TDP1 = TDP1 (Homo sapiens (Human), UniProt Q9NUW8); assay: TDP1 gel-based in vitro fluorescence assay; assay type: biochemical
# Protocol: as §1, §2
# Gel images were scanned using a Typhoon FLA 9500 scanner (GE Healthcare) and densitometric analyses were performed using the ImageQuant software (GE Healthcare). The IC50 of TDP1 inhibitors was calculated by comparing the percentage of cleavage product (5′Cy5-[…]-p-3′) to DMSO control.
# [1] = Table 10, PROTACs, read-out: TDP1 IC50
# [2] = Table 7, HPLC-purified oxime leads
# [3] = Table 7, ratio of IC50 TDP2 to TDP1
# [4] = Table 1, imidazo[1,2-a]pyridin-3-amines, read-out: IC50
# [5] = Table 2, imidazo[1,2-a]pyrazin-3-amine core, read-out: IC50
# Chain of TDP1 (Q9NUW8 whole entry): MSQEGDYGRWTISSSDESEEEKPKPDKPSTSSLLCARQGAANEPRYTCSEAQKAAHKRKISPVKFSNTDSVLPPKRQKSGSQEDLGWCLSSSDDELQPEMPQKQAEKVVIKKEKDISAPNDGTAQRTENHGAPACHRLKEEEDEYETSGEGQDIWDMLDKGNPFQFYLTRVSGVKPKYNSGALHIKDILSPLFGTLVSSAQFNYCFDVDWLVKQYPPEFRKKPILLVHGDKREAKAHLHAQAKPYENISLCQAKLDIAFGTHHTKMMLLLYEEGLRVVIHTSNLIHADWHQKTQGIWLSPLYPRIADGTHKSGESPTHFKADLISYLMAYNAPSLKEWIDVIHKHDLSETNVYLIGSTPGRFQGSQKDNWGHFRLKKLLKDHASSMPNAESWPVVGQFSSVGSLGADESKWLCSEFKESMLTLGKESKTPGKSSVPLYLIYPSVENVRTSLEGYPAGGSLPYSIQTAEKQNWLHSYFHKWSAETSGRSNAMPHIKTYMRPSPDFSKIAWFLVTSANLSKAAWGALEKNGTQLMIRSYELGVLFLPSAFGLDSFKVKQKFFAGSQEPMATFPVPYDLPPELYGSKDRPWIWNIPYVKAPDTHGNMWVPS
# Chain of TDP2 (O95551 whole entry, species assumed): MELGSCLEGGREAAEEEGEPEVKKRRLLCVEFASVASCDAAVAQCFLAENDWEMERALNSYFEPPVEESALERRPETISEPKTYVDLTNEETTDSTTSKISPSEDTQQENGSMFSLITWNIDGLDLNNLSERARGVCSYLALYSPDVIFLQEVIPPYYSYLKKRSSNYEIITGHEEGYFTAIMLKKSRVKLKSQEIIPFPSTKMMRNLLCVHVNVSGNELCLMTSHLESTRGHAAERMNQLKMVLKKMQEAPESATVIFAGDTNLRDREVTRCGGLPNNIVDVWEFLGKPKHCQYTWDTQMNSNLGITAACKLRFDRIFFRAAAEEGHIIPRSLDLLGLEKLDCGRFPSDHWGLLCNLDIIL
smiles,measurement,setting,value
"O=C1CCC(N2C(=O)c3cccc(OCCOCCOCc4cn(Cc5ccc(-c6nc7cc(-c8ccccc8)ccn7c6Nc6ccc(C(=O)O)cc6)cc5)nn4)c3C2=O)C(=O)N1 (stereo not drawn) [XZ743, 4-((2-(4-((4-((2-(2-((2-(2,6-Dioxopiperidin-3-yl)-1,3-dioxoisoindolin-4-yl)oxy)ethoxy)ethoxy)methyl)-1H-1,2,3-triazol-1-yl)methyl)phenyl)-7-phenylimidazo[1,2-a]pyridin-3-yl)amino)benzoic acid]",IC50,"TDP2; Table 10, PROTACs",> 100 µM
same,IC50,TDP1; [1],> 100 µM
"O=C(O)c1ccc(Nc2c(-c3ccc(OS(=O)(=O)F)cc3)nc3cc(-c4ccccc4)ccn23)cc1 [XZ728, 4-((2-(4-((Fluorosulfonyl)oxy)phenyl)-7-phenylimidazo[1,2-a]pyridin-3-yl)amino)benzoic acid]",IC50,"TDP2; Table 9, fluorosulfates and sulfonyl fluorides",> 100 µM
same,IC50,"TDP1; Table 9, fluorosulfates and sulfonyl fluorides, read-out: TDP1 IC50",> 100 µM
"Cc1ncsc1-c1ccc(CNC(=O)[C@@H]2C[C@@H](O)CN2C(=O)[C@@H](NC(=O)COCCOCCOCCn2cc(COc3ccc(-c4nc5cc(-c6ccccc6)ccn5c4Nc4ccc(C(=O)O)cc4)cc3)nn2)C(C)(C)C)cc1 [XZ680, 4-((2-(4-((1-((S)-13-((2S,4R)-4-hydroxy-2-((4-(4-methylthiazol-5-yl)benzyl)carbamoyl)pyrrolidine-1-carbonyl)-14,14-dimethyl-11-oxo-3,6,9-trioxa-12-azapentadecyl)-1H-1,2,3-triazol-4-yl)methoxy)phenyl)-7-phenylimidazo[1,2-a]pyridin-3-yl)amino)benzoic acid]",IC50,"TDP2; Table 10, PROTACs",> 100 µM
same,IC50,TDP1; [1],> 100 µM
"Cc1cncc(Oc2ccc(/C=N\OCc3ccc(-c4nc5cc(-c6ccccc6)ccn5c4Nc4ccc(C(=O)O)cc4)cc3)cc2)n1 [XZ711, (Z)-4-((2-(4-((((4-((6-methylpyrazin-2-yl)oxy)benzylidene)amino)oxy)methyl)phenyl)-7-phenylimidazo[1,2-a]pyridin-3-yl)amino)benzoic acid]",IC50,TDP2; [2],> 100 µM
same,FC (fold change),TDP1; [3],>2
"Cc1ncsc1-c1ccc(CNC(=O)[C@@H]2C[C@@H](O)CN2C(=O)[C@@H](NC(=O)COCCOCCn2cc(-c3ccn4c(Nc5ccc(C(=O)O)cc5)c(-c5ccccc5)nc4c3)nn2)C(C)(C)C)cc1 [XZ682, 4-((7-(1-(2-(2-(2-(((S)-1-((2S,4R)-4-Hydroxy-2-((4-(4-methylthiazol-5-yl)benzyl)carbamoyl)pyrrolidin-1-yl)-3,3-dimethyl-1-oxobutan-2-yl)amino)-2-oxoethoxy)ethoxy)ethyl)-1H-1,2,3-triazol-4-yl)-2-phenylimidazo[1,2-a]pyridin-3-yl)amino)benzoic acid]",IC50,"TDP2; Table 10, PROTACs",> 100 µM
same,IC50,TDP1; [1],> 100 µM
"Cc1cncc(Oc2ccc(/C=N/OCc3ccc4nc(-c5ccccc5)c(Nc5ccc(C(=O)O)cc5)n4c3)cc2)n1 [XZ707, (E)-4-((6-((((4-((6-methylpyrazin-2-yl)oxy)benzylidene)amino)oxy)methyl)-2-phenylimidazo[1,2-a]pyridin-3-yl)amino)benzoic acid]",IC50,TDP2; [2],> 100 µM
same,IC50,"TDP1; Table 7, HPLC-purified oxime leads, read-out: TDP1 IC50",> 100 µM
"O=C1CCC(N2C(=O)c3cccc(NCCCCCCNCc4ccc(-c5nc6cc(-c7ccccc7)ccn6c5Nc5ccc(C(=O)O)cc5)cc4)c3C2=O)C(=O)N1 (stereo not drawn) [XZ742, 4-((2-(4-(((6-((2-(2,6-Dioxopiperidin-3-yl)-1,3-dioxoisoindolin-4-yl)amino)hexyl)amino)methyl)phenyl)-7-phenylimidazo[1,2-a]pyridin-3-yl)amino)benzoic acid]",IC50,"TDP2; Table 10, PROTACs",> 100 µM
same,IC50,TDP1; [1],> 100 µM
"Cc1ncsc1-c1ccc(CNC(=O)[C@@H]2C[C@@H](O)CN2C(=O)[C@@H](NC(=O)COCCOCCOCCOCCn2cc(COc3ccc(-c4nc5cc(-c6ccccc6)ccn5c4Nc4ccc(C(=O)O)cc4)cc3)nn2)C(C)(C)C)cc1 [XZ681, 4-((2-(4-((1-((S)-16-((2S,4R)-4-Hydroxy-2-((4-(4-methylthiazol-5-yl)benzyl)carbamoyl)pyrrolidine-1-carbonyl)-17,17-dimethyl-14-oxo-3,6,9,12-tetraoxa-15-azaoctadecyl)-1H-1,2,3-triazol-4-yl)methoxy)phenyl)-7-phenylimidazo[1,2-a]pyridin-3-yl)amino)benzoic acid]",IC50,"TDP2; Table 10, PROTACs",> 100 µM
same,IC50,TDP1; [1],> 100 µM
"N#Cc1ccc(-c2ccc(Cn3cc(COc4ccc(-c5nc6ccccn6c5Nc5ccc(C(=O)O)cc5)cc4)nn3)cc2)nc1 [XZ721, 4-((2-(4-((1-(4-(5-Cyanopyridin-2-yl)benzyl)-1H-1,2,3-triazol-4-yl)methoxy)phenyl)imidazo[1,2-a]pyridin-3-yl)amino)benzoic acid]",IC50,"TDP2; Table 8, lead compounds with different linkers",> 100 µM
same,IC50,"TDP1; Table 8, lead compounds with different linkers, read-out: TDP1 IC50",60 ± 17 µM
same,FC (fold change),"TDP1; Table 8, ratio of IC50 TDP2 to TDP1",>1
"O=C(O)c1ccc(Nc2c(-c3ccc(CO/N=C/c4ccc(-c5ccccc5)cc4)cc3)nc3cc(-c4ccccc4)ccn23)cc1 [XZ705, (E)-4-((2-(4-(((([1,1′-Biphenyl]-4-ylmethylene)amino)oxy)methyl)phenyl)-7-phenylimidazo[1,2-a]pyridin-3-yl)amino)benzoic acid]",IC50,TDP2; [2],> 100 µM
same,FC (fold change),TDP1; [3],>2
"O=C(O)c1ccc(Nc2c(-c3ccc(CO/N=C\c4ccc(-c5cnccn5)cc4)cc3)nc3cc(-c4ccccc4)ccn23)cc1 [XZ709, (Z)-4-((7-Phenyl-2-(4-((((4-(pyrazin-2-yl)benzylidene)amino)oxy)methyl)phenyl)imidazo[1,2-a]pyridin-3-yl)amino)benzoic acid]",IC50,TDP2; [2],> 100 µM
same,FC (fold change),TDP1; [3],>2
"Cc1cncc(Oc2ccc(/C=N/OCc3ccc(-c4nc5cc(-c6ccccc6)ccn5c4Nc4ccc(C(=O)O)cc4)cc3)cc2)n1 [XZ704, (E)-4-((2-(4-((((4-((6-methylpyrazin-2-yl)oxy)benzylidene)amino)oxy)methyl)phenyl)-7-phenylimidazo[1,2-a]pyridin-3-yl)amino)benzoic acid]",IC50,TDP2; [2],> 100 µM
same,FC (fold change),TDP1; [3],>1
"Cc1cncc(Oc2ccc(/C=N\OCc3ccc4nc(-c5ccccc5)c(Nc5ccc(C(=O)O)cc5)n4c3)cc2)n1 [XZ713, (Z)-4-((6-((((4-((6-Methylpyrazin-2-yl)oxy)benzylidene)amino)oxy)methyl)-2-phenylimidazo[1,2-a]pyridin-3-yl)amino)benzoic acid]",IC50,TDP2; [2],> 100 µM
"Cc1ncsc1-c1ccc(CNC(=O)[C@@H]2C[C@@H](O)CN2C(=O)[C@@H](NC(=O)COCCOCCOCCOCCn2cc(-c3ccn4c(Nc5ccc(C(=O)O)cc5)c(-c5ccccc5)nc4c3)nn2)C(C)(C)C)cc1 [XZ684, 4-((7-(1-((S)-16-((2S,4R)-4-Hydroxy-2-((4-(4-methylthiazol-5-yl)benzyl)carbamoyl)pyrrolidine-1-carbonyl)-17,17-dimethyl-14-oxo-3,6,9,12-tetraoxa-15-azaoctadecyl)-1H-1,2,3-triazol-4-yl)-2-phenylimidazo[1,2-a]pyridin-3-yl)amino)benzoic acid]",IC50,"TDP2; Table 10, PROTACs",> 100 µM
same,IC50,TDP1; [1],> 100 µM
"CS(=O)(=O)c1ccc2nc(-c3ccc(-c4ccccc4)cc3)c(Nc3ccc(C(=O)O)cc3)n2c1 [Compound 8r, 4-((2-([1,1′-Biphenyl]-4-yl)-6-(methylsulfonyl)imidazo[1,2-a]pyridin-3-yl)amino)benzoic acid]",IC50,TDP1; [4],9.95 µM
CCOC(=O)c1ccc(Nc2c(-c3ccccc3O)nc3cnccn23)cc1 [Compound 7a],IC50,TDP1; [5],> 1000 µM
O=C(O)c1cccc(Nc2c(-c3ccc(N4CCOCC4)cc3)nc3cnccn23)c1 [Compound 7p],IC50,TDP1; [5],942 µM
O=C(O)c1ccc(Nc2c(-c3cccc(Br)c3)nc3cnccn23)cc1 [Compound 7y],IC50,TDP1; [5],> 1000 µM
COC(=O)c1ccccc1Nc1c(-c2ccccc2O)nc2cnccn12 [Compound 7k],IC50,TDP1; [5],> 1000 µM
COc1ccc(-c2nc3cnccn3c2Nc2ccc(C(N)=O)cc2)cc1 [Compound 7c],IC50,TDP1; [5],> 1000 µM
O=C(O)c1cccc(Nc2c(-c3ccccc3)nc3cnccn23)c1 [Compound 71],IC50,TDP1; [5],> 1000 µM
COc1ccccc1Nc1c(-c2ccc(C(=O)O)cc2)nc2cnccn12 [Compound 7g],IC50,TDP1; [5],2300 µM
"Cc1ccc(-c2nc3ccccn3c2Nc2ccc(C(=O)O)cc2)cc1 [Compound 8b, 4-((2-(p-Tolyl)imidazo[1,2-a]pyridin-3-yl)amino)benzoic acid]",IC50,TDP1; [4],14.8 µM
O=C(O)c1cccc(Nc2c(-c3cccc(O)c3)nc3cnccn23)c1 [Compound 7n],IC50,TDP1; [5],2050 µM
"O=C(O)c1ccc(Nc2c(-c3ccc(S(=O)(=O)O)cc3)nc3ccccn23)cc1 [Compound 8g, 4-((2-(4-Sulfophenyl)imidazo[1,2-a]pyridin-3-yl)amino)benzoic acid]",IC50,TDP1; [4],> 100 µM
Cc1ccc(-c2nc3cnccn3c2Nc2cccc(C(=O)O)c2)cc1 [Compound M8],IC50,"TDP1; Table 3, values in brackets (footnote vi), read-out: TDP1 IC50 (μM), separated data from previous experiments",233 µM
"c1ccc(Nc2c(-c3ccccc3)nc3ccccn23)cc1 [Compound 6t, N,2-Diphenylimidazo[1,2-a]pyridin-3-amine]",IC50,TDP1; [4],> 100 µM
"O=C(O)c1ccc2nc(-c3ccccc3)c(Nc3ccc([N+](=O)[O-])cc3)n2c1 [Compound 8l, 3-((4-Nitrophenyl)amino)-2-phenylimidazo[1,2-a]pyridine-6-carboxylic acid]",IC50,TDP1; [4],22 µM
